Data on 21 molecules can be found in US20130259830A1, “CRTH2 MODULATORS” (Ironwood Pharmaceuticals, Inc., priority 2010, published 2013).

Experiment [1] deals with T1, CRTH2 (Homo sapiens, UniProt Q9Y5Y4).
T1 construct: endogenous in cells; host or cells: eosinophils in human whole blood
T1 sequence (Q9Y5Y4 1-395): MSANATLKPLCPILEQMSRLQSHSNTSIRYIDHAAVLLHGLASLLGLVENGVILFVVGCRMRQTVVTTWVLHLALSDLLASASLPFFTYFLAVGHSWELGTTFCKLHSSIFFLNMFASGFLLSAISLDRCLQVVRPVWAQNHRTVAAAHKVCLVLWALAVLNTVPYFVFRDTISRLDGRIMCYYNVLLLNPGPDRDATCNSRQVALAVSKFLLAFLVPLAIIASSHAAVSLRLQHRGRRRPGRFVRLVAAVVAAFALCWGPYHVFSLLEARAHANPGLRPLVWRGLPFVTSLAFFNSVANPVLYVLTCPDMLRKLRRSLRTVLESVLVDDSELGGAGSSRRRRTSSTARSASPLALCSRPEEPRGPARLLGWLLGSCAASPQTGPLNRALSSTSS
The experiment can be described thus: DPBS CD11b antagonist assay (CD11b expression in eosinophils challenged with 15R-Methyl-PGD2). The experiment is classed as cell-based. Particulars: polymorphonuclear cells in PBS with CaCl2/MgCl2; agonist 15R-Methyl-PGD2 10 nM; eosinophils gated by flow cytometry. As to the method:
DPBS CD111b Antagonist Assay.
The potential CRTH2 antagonist, activity of certain compounds was tested using a CD11b expression assay using essentially the method described by Monneret et al. (J Pharmacol Exp Ther 304:349-55, 2003). Briefly, polymorphonuclear cells (0.5 ml; 10^6/ml cells) in PBS containing 0.9 mM CaCl2 and 0.5 mM MgCl2) were preincubated with various concentrations of test compounds at room temperature for 10 minutes before they were challenged with the agonist 15R-Methyl-PGD2 (10 nM). The incubations were terminated by the addition of ice-cold FACSFlow (BD Biosciences; Cat#342003) and centrifugation (400 g for 5 minutes at 4° C.). The cells were then incubated for 30 minutes at 4° C. with a mixture of PE-labeled mouse anti-human VLA-4 (5 μl; BD Biosciences) and FITC-labeled mouse anti-human CD11b (10 μl; Beckman Coulter). The cells were then incubated with Optilyse C (0.25 ml; Beckman Coulter) for 15 minutes, centrifuged, and then fixed in PBS (0.4 ml; calcium and magnesium free) containing 1% formaldehyde. The distribution of fluorescence intensities among 60,000 cells was measured by flow cytometry. Eosinophils were gated out on the basis of their granularity (high side scatter) and labeling with VLA-4 (PE fluorescence). CD11b was then measured in the eosinophil region on the basis of fluorescence due to FITC. All data were corrected for the value obtained for the corresponding isotope control antibody.
Background: In flow cytometry, cells or beads pass a laser one at a time.

The target of experiment [2] is T1, CRTH2. The experiment can be described thus: Human whole blood CD11b antagonist assay (CD11b expression in eosinophils challenged with 15-R-methyl-PGD2). The class given is cell-based. Conditions: 37° C. 10 minutes preincubation, agonist 15R-Methyl-PGD2 10 nM, eosinophils gated by flow cytometry. Here is the method: Human Whole Blood […] Antagonist Assay (Modified from Nicholson, et al. Pulmonary Pharmacology and Therapeutics: 20 (2007); 52-59).
The potential CRTH2 antagonist activity of certain compounds was tested in human whole blood using an assay that tests the ability of the compounds to block the CD11b expression in eosinophils by 15-R-methyl-PGD2. A CRTH2 antagonist should block CD11b expression by subsequently added 15-Methyl-PGD2. Human whole blood (200 μL) was incubated at 37° C. for 10 minutes in the presence of various concentrations of test compounds before being challenged with the agonist 1-5R-Methyl-PGD2 (10 nM). Reactions were terminated by the addition of ice-cold PBS+0.5% BSA+2 mM EDTA (1 mL) and centrifugation (300×g for 5 minutes at 4° C.) Cells were then incubated at 4° C. for 10 min in the presence of human IgG. Cells were then incubated for 30-45 min with a mixture of PE-Cy5-labeled mouse anti-human CD16 (10 ul; BD Biosciences) and FITC-labeled mouse anti-human CD11b (10 μL; Beckman Coulter.) After rinsing (1 mL ice-cold PBS+0.5% BSA+2 mM EDTA), red blood cells were lysed by the addition of 1 mL ice-cold H2O to the cell pellet for 30 sec-1 min immediately followed by the addition of 3.5% NaCl (300 μL.) Cells were then rinsed (2×−1 ml ice cold PBS+0.5% BSA+2m MEDTA) and fixed in PBS containing 1% formaldehyde. The distribution of fluorescence intensities was measured by flow cytometry. Eosinophils were gated out on the basis of their granularity (high side scatter) and absence of CD-16. CD11b was then measured on this eosinophil population on the basis of fluorescence due to FITC.

Take `Cc1c(Cc2sccc2S(=O)(=O)c2ccccc2)c2c(n1CC(=O)O)CC(C)(C)CC2=O` [Compound I-42]: the IC50 in experiment [1] and in experiment [2] was under 1 nM throughout.

Take `Cc1c(Cc2cc3ccccc3n2S(=O)(=O)N2CCOCC2)c2c(n1CC(=O)O)CC(C)(C)CC2=O` [Compound I-37]: the IC50 (usually the concentration that gives 50% inhibition) in experiment [1] was under 1 nM; in experiment [2], 20 to 100 nM.

Regarding `Cc1ccc(S(=O)(=O)c2ncccc2Cc2c3c(n(CC(=O)O)c2C)CC(C)(C)CC3=O)cc1` [Compound I-20, 2-(2,6,6-Trimethyl-4-oxo-3-((2-tosylpyridin-3-yl)methyl)-4,5,6,7-tetrahydro-1H-indol-1-yl)acetic acid], the IC50 in experiment [1] was under 1 nM; in experiment [2], 5 to 20 nM.

Turning to `CCOC(=O)N1CCN(S(=O)(=O)c2ccc(Cc3c4c(n(CC(=O)O)c3C)CCOC4)cc2)CC1` [Compound I-2, 2-(3-(4-(4-(Ethoxycarbonyl)piperazin-1-ylsulfonyl)benzyl)-2-methyl-6,7-dihydropyrano[4,3-b]pyrrol-1(4H)-yl)acetic acid], the values for the concentration for half-maximal inhibition (IC50) in experiment [1] and in experiment [2] were 1 to 5 nM and 100 to 500 nM, respectively.

As for `CCOC(=O)Cn1c(C)c(Cc2cccnc2S(=O)(=O)c2cccc(OC)c2)c2c1CC(C)(C)CC2=O` [Compound I-11, Ethyl 2-(3-((2-(3-methoxyphenylsulfonyl)pyridin-3-yl)methyl)-2,6,6-trimethyl-4-oxo-4,5,6,7-tetrahydro-1H-indol-1-yl)acetate], the IC50 in experiment [1] is 100 to 500 nM; in experiment [2] it was 500 to 3000 nM.

Take `Cc1c(Cc2ccccc2S(=O)(=O)N2CCCC2)c2c(n1CC(=O)O)CCNC2=O` [Compound I-39, 2-(2-Methyl-4-oxo-3-(2-(pyrrolidin-1-ylsulfonyl)benzyl)-4,5,6,7-tetrahydro-1H-pyrrolo[3,2-c]pyridin-1-yl)acetic acid]: the 50% inhibitory concentration (IC50) was under 1 nM in experiment [1] and 5 to 20 nM in experiment [2].

On to `Cc1c(Cc2ccccc2NS(=O)(=O)c2ccccc2)c2c(n1CC(=O)O)CC(C)(C)CC2=O` [Compound I-24, 2-(2,6,6-Trimethyl-4-oxo-3-(2-(phenylsulfonamido)benzyl)-4,5,6,7-tetrahydro-1H-indol-1-yl)acetic acid], for which the IC50 in experiment [1] was under 1 nM; in experiment [2], 5 to 20 nM.

Regarding `Cc1c(Cc2ccccc2NS(=O)(=O)N2CCOCC2)c2c(n1CC(=O)O)CC(C)(C)CC2=O` [Compound I-49], the IC50 fell in the range of 1 to 5 nM in experiment [1] and 20 to 100 nM in experiment [2].

For `Cc1c(Sc2ccccc2N(C)S(=O)(=O)c2ccccc2)c2c(n1CC(=O)O)CC(C)(C)CC2` [Compound I-53, 2-(2,6,6-trimethyl-3-(2-(N-methylphenylsulfonamido)phenylthio)-4,5,6,7-tetrahydro-1H-indol-1-yl)acetic acid], the half-maximal inhibitory concentration (IC50) in experiment [2] fell in the range of 500 to 3000 nM.

Turning to `Cc1c(Cc2ccccc2NS(=O)(=O)N2CCCC2)c2c(n1CC(=O)O)CC(C)(C)CC2=O` [Compound I-47], the IC50 in experiment [1] was 5 to 20 nM; in experiment [2] it was 20 to 100 nM.

For the molecule `Cc1c(Cc2cc(OCC(F)(F)F)ccc2NS(=O)(=O)c2ccccc2)c2c(n1CC(=O)O)CC(C)(C)CC2=O` [Compound I-36, 2-(2,6,6-Trimethyl-4-oxo-3-(2-(phenylsulfonamido)-5-(2,2,2-trifluoroethoxy)benzyl)-4,5,6,7-tetrahydro-1H-indol-1-yl)acetic acid], the results for the half-inhibitory concentration (IC50) in experiment [1] and in experiment [2] were 1 to 5 nM and 20 to 100 nM, respectively.

Consider `COc1cccc(S(=O)(=O)c2ncccc2Cc2c3c(n(CC(=O)O)c2C)CC(C)(C)CC3=O)c1` [Compound I-13, 2-(3-((2-(3-Methoxyphenylsulfonyl)pyridin-3-yl)methyl)-2,6,6-trimethyl-4-oxo-4,5,6,7-tetrahydro-1H-indol-1-yl)acetic acid], for which the IC50 in experiment [1] is 1 to 5 nM; in experiment [2], 20 to 100 nM.

As to `Cc1c(Cc2ccccc2N(C)S(=O)(=O)c2ccccc2)c2c(n1CC(=O)O)CC(C)(C)CC2=O` [Compound I-35, 2-(2,6,6-Trimethyl-3-(2-(N-methylphenylsulfonamido)benzyl)-4-oxo-4,5,6,7-tetrahydro-1H-indol-1-yl)acetic acid], the IC50 in experiment [1] fell in the range of 1 to 5 nM; in experiment [2] it was 20 to 100 nM.

For `CCOC(=O)Cn1c(C)c(Cc2cccnc2S(=O)(=O)c2ccc(C)cc2)c2c1CC(C)(C)CC2=O` [Compound I-16, Ethyl 2-(2,6,6-trimethyl-4-oxo-3-((2-tosylpyridin-3-yl)methyl)-4,5,6,7-tetrahydro-1H-indol-1-yl)acetate], the 50% inhibitory concentration (IC50) was in the range of 20 to 100 nM in experiment [1] and 500 to 3000 nM in experiment [2].

Regarding `CCOC(=O)Cn1c(C)c(Cc2cccnc2S(=O)(=O)c2ccc(Cl)cc2)c2c1CC(C)(C)CC2=O` [Compound I-14, Ethyl 2-(3-((2-(4-chlorophenylsulfonyl)pyridin-3-yl)methyl)-2,6,6-trimethyl-4-oxo-4,5,6,7-tetrahydro-1H-indol-1-yl)acetate], the IC50 in experiment [1] is 100 to 500 nM; in experiment [2] it was 500 to 3000 nM.

In the case of `Cc1c(Cc2ccccc2N(C)S(=O)(=O)c2ccc(C(C)C)cc2)c2c(n1CC(=O)O)CC(C)(C)CC2=O` [Compound I-34, 2-(3-(2-(4-Isopropyl-N-methylphenylsulfonamido)benzyl)-2,6,6-trimethyl-4-oxo-4,5,6,7-tetrahydro-1H-indol-1-yl)acetic acid], the half-inhibitory concentration (IC50) fell in the range of 5 to 20 nM in experiment [1] and 500 to 3000 nM in experiment [2].

Regarding `Cc1c(Cc2cccnc2S(=O)(=O)c2ccccc2)c2c(n1CC(=O)O)CC(C)(C)CC2=O` [Compound I-3, 2-(2,6,6-trimethyl-4-oxo-3-((2-(phenylsulfonyl)pyridin-3-yl)methyl)-4,5,6,7-tetrahydro-1H-indol-1-yl)acetic acid], the IC50 in experiment [1] is under 1 nM; in experiment [2] it was 5 to 20 nM.

In the case of `CCOC(=O)Cn1c(C)c(Cc2cccnc2S(=O)(=O)c2ccc(F)cc2F)c2c1CC(C)(C)CC2=O` [Compound I-18, Ethyl 2-(3-((2-(2,4-difluorophenylsulfonyl)pyridin-3-yl)methyl)-2,6,6-trimethyl-4-oxo-4,5,6,7-tetrahydro-1H-indol-1-yl)acetate], the IC50 in experiment [1] is 100 to 500 nM; in experiment [2] it was 500 to 3000 nM.

For the molecule `Cc1c(Cc2ccccc2NS(=O)(=O)c2ccc(C(C)C)cc2)c2c(n1CC(=O)O)CC(C)(C)CC2=O` [Compound I-27, 2-(3-(2-(4-Isopropylphenylsulfonamido)benzyl)-2,6,6-trimethyl-4-oxo-4,5,6,7-tetrahydro-1H-indol-1-yl)acetic acid], the values for the IC50 in experiment [1] and in experiment [2] were under 1 nM and 20 to 100 nM, respectively.

For the molecule `Cc1ccc(S(=O)(=O)N(C)c2ccccc2Cc2c3c(n(CC(=O)O)c2C)CC(C)(C)CC3=O)cc1` [Compound I-33, 2-(3-(2-(N,4-dimethylphenylsulfonamido)benzyl)-2,6,6-trimethyl-4-oxo-4,5,6,7-tetrahydro-1H-indol-1-yl)acetic acid], the IC50 fell in the range of 1 to 5 nM in experiment [1] and 100 to 500 nM in experiment [2].

`Cc1c(Cc2cc3ccccc3n2S(=O)(=O)c2ccccc2)c2c(n1CC(=O)O)CCC(C)(C)C2` [Compound I-1, 2-(2,5,5-trimethyl-3-((1-(phenylsulfonyl)-1H-indol-2-yl)methyl)-4,5,6,7-tetrahydro-1H-indol-1-yl)acetic acid] came in with an IC50 in experiment [1] of under 1 nM.
